Results taken from US5380834A, “Immuno-suppressive agent” (Ishihara Sangyo Kaisha Ltd., priority 1992, dated 1995).
In brackets after ≈: the same amount, converted by molar mass. Read-outs that look alike come from different tables or passages of the source.

Assays:
[1] = system: murine mixed lymphocyte reaction (spleen cells of BALB/c and C57BL/6 mice); assay: Effects on the murine mixed lymphocyte reaction (3H-TdR uptake); assay type: cell-based; conditions: Mus musculus, BALB/c + C57BL/6 spleen cells, 48 hours, read-out: IC50 value, b (murine mixed lymphocyte reaction)
Experimental: Using spleen cells of BALB/c and C57BL/6 mice, the effect of the compound of the formula (I) on the murine mixed lymphocyte reaction in both sides, was studied. Namely, spleen cells of both types of mice were mixed in an equal amount of 5×10^5 cells each, and the mixed cells were cultured together with the compound of the formula (I) for 48 hours on a microplate with 96 wells by a 10% FCS-RPMI solution (in an incubator, 5% CO2, at 37° C.). Then, 0.5 μCi of ^3 H-TdR was added thereto, and the mixture was further cultured for from 16 to 18 hours. Then, cells were collected by a cell harvester, and the radioactivity (dpm) of ^3 H-TdR uptaken into the cells, was measured. Such measured amounts of ^3 H-TdR uptaken into the cells were used as indices for the mixed lymphocyte reaction, and the radioactivity at each concentration (from 0.001 to 1,000 μg/ml) of the compound of the formula (I) was compared with the non-treated control value, to calculate the Ic50 value.
For the basic procedure for this test, reference was made to Selected methods in cellular immunology, p. 147-149 (translated by Katsuyuki Imai et al., published by Rikogakusha, (1982)).

[2] = system: IgE antibody production from murine spleen B cells; assay: Effects on the IgE antibody production from murine spleen cells (LPS + IL4); assay type: cell-based, BALB/c mouse; conditions: Mus musculus, B-cell, 168 h, read-out: IC50 value, IgE antibody production
Experimental: (§1) Using murine spleen B cells, the effects of the compound of the formula (I) on the IgGl, IgM and IgE antibody production induced by the stimulation by LPS (lipopolysaccharide; Product No. 520.02051, manufactured by Wako Junyaku) and IL4 (interleukin 4), were studied. Namely, spleen cells of a BALB/c mouse were treated with a murine anti-Thy-1 antibody (obtained from Chiba University) and a rabbit complement (Product No. 3051, manufactured by cedarlane) to remove T cells, and 3×10^5 spleen B cells were cultured for 7 days together with 10 μg/ml of LPS, 100 U/ml of mouse-recombinant IL4 (Product No. MIL-4C, manufactured by Genzyme) and each concentration (from […]) of the compound of the formula (I) on a microplate with 96 wells by a 10% FCS-RPMI solution (in an incubator, 5% CO2, at 37° C.).
(§2) For the basic procedure of this test, reference was made to The Journal of Immunology, Vol. 136, p. 4538, (1986).
(§3) The amount of each antibody in the cell culture supernatant hereby obtained, was measured by the following enzyme-immunoassay. Firstly, on a microplate with 96 wells, 1 μg/ml of a rabbit anti-mouse IgGl antibody (Product No. 36243, manufactured by Cappel), 1 μg/ml of a goat anti-mouse IgM antibody (Product No. 0611-0201, manufactured by Cappel) or 10 μg/ml of a rat anti-mouse IgE monoclonal antibody (Product No. LO-ME-2, manufactured by Experimental Immunology) was coated (50 μl/well, at room temperature for 60 minutes), and then a nonspecific bond was blocked by a 0.1% bovine serum albumin-containing 10 mM sodium phosphate buffer (pH 7.2) (at room temperature for 60 minutes). Then, the above-mentioned cell culture supernatant or its diluted solution was added in an amount of 50 μl/well and reacted at room temperature for 60 minutes. Further, an alkaline phosphatase-labeled rabbit anti-mouse IgGl antibody (Product No. 61-0122, manufactured by Zymet) diluted 1,000 times, an alkaline phosphatase-labeled rabbit anti-mouse IgM antibody (Product No. 61-6822, manufactured by Zymet) diluted 2,000 times, or an alkaline phosphatase-labeled goat anti-mouse IgE antibody (Product No. PA-284, manufactured by Binding Site) diluted 500 times was added in an amount of 50 μl/well and reacted at room temperature for 60 minutes. 100 μl/well of a 10% diethanol amine buffer solution (pH 9.8) containing p-nitrophenyl phosphate as an enzyme substrate, was reacted, and the absorbance at 405 nm was measured. The amount of each antibody was calculated from the calibration curve of each standard antibody, and the IC50 value of the compound of the formula (I) on the antibody production was calculated using as the control value a value obtained in the absence of the compound of the formula (I).

murine bone mallow cells = assay: Effects on the murine bone mallow cells (proliferation, 3H-TdR uptake); assay type: cell-based, BALB/c mouse; conditions: Mus musculus
Experimental: Bone mallow cells were removed from the femur of a BALB/c mouse and suspended in a 10% FCS-RPMI solution. The cell suspension was put into a plastic Petri dish having a diameter of 10 cm and left to stand still (in an incubator, 5% CO2, at 37° C.). Two hours later, only floating cells were recovered, and adhesion cells were removed. 1×10^5 floating cells were cultured for 48 hours together with a 20% culture supernatant of L929 fibroblastoma and the compound of the formula (I) on a microplate with 96 wells by a 10% FCS-RPMI solution (in an incubator, 5% CO2, at 37° C.). Then, 0.5 μCi of ^3 H-TdR was added thereto, and the mixture was further cultured for 4 hours. Then, cells were collected by a cell harvester, and the radioactivity (dpm) of ^3 H-TdR uptaken into the cells, was measured. Such measured amounts of ^3 H-TdR uptaken into the cells were used as indices for the proliferation of bone mallow cells, and the radioactivity at each concentration (from 0.001 to 1,000 μg/ml) of the compound of the formula (I) was compared with the control value where the L929 culture supernatant was added alone, to calculate the IC50 value. In these Tables 12 and 13, the results of the bone mallow cells are shown by (c).
For the basic procedure of this test, reference was made to Seikagakujikken Koza compiled by Japan Biochemistry Association, Vol. 5, p. 266-270 (published by Tokyo Kagaku Dojin in 1986).

[3] = system: IgGl antibody production from murine spleen B cells; assay: Effects on the IgGl antibody production from murine spleen cells (LPS + IL4); assay type: cell-based, BALB/c mouse; conditions: Mus musculus, B-cell, 168 h, read-out: IC50 value, IgGl antibody production
Experimental: as §1, §2, §3

murine thymocytes = assay: Effects on the mitogenic response by murine thymocytes (Con A stimulation, 3H-TdR uptake); assay type: cell-based, BALB/c murine; conditions: Mus musculus, Thymocyte, read-out: IC50 value, a (mitogenic response of murine thymocytes)
Experimental: Using BALB/c murine thymocytes, the effect of the compound of the formula (I) on the mitogenic response of lymphocytes to the stimulation by concanavalin A (hereinafter referred to simply as Con A, Product No. L-1000, manufactured by Vector Laboratories) was studied. Namely, 4×10^5 murine thymocytes were cultured for 48 hours on a microplate with 96 wells in a RPMI1640 solution containing 10% of a fetal bovine serum (hereinafter referred to simply as a 10% FCS-RPMI solution) together with Con A (5 μg/ml) and the compound of the formula (I) (in an incubator, 5% CO2, at 37° C.). Then, 0.5 μCi of ^3 H-thymidine (hereinafter referred to simply as ^3 H-TdR) was added thereto, and the mixture was further cultured for 4 hours. Then, cells were collected by a cell harvester, and the radioactivity (dpm) of ^3 H-TdR uptaken into cells was measured. Such measured amounts of ^3 H-TdR uptaken into the cells were used as indices of the mitogenic response of the murine thymocytes, and the radioactivity at each concentration (from 0.001 to 1,000 μg/ml) of the compound of the formula (I) was compared with the control value treated solely by Con A, to calculate IC50 value. In these Tables 12 and 13, the results of murine thymocytes are shown by (a).
For the basic procedure of this test, reference was made to Selected methods in cellular immunology, p. 144-146 (translated by Katsuyuki Imai et al., published by Rikogakusha, (1982)).

[4] = system: IgM antibody production from murine spleen B cells; assay: Effects on the IgM antibody production from murine spleen cells (LPS + IL4); assay type: cell-based, BALB/c mouse; conditions: Mus musculus, B-cell, 168 h, read-out: IC50 value, IgM antibody production
Experimental: as §1, §2, §3

[5] = spleen B cells, LPS 10 μg/ml, IL4 100 U/ml, 7 days, enzyme-immunoassay
[6] = bone marrow cells, 20% L929 culture supernatant, 48 hours, 3H-TdR uptake, Tables 12-15, read-out: IC50 value, c (murine bone mallow cells)
[7] = BALB/c thymocytes, Con A 5 μg/ml, 48 hours, 3H-TdR uptake

Compound	IC50 [1] [mg/L]	IC50 [2, 5] [mg/L]	IC50 (murine bone mallow cells; [6]) [mg/L]	IC50 [3, 5] [mg/L]	IC50 (murine thymocytes; [7]) [mg/L]	IC50 [4, 5] [mg/L]	IC50 [2] [mg/L]	IC50 (murine bone mallow cells; L929, read-out: IC50 value, c (murine bone mallow cells)) [mg/L]	IC50 [3] [mg/L]	IC50 (murine thymocytes) [mg/L]	IC50 [4] [mg/L]
O=C(Nc1ccccc1)O[C@H]1C=C[C@H]2CO[C@@H]1O2 [Compound 23, 1,6-anhydro-3,4-dideoxy-2-O-phenylcarbamoyl-β-D-threo-hex-3-enopyranose]	170	43	49 (≈ 198 µM)	72	95 (≈ 384 µM)	69					
O=C(CCl)O[C@H]1C=C[C@H]2CO[C@@H]1O2 [Compound 10]	18	< 0.001	68 (≈ 332 µM)	< 0.001	1.4 (≈ 6.84 µM)	< 0.001					
CCCCCCCCCCCCCCCC(=O)O[C@@H]1C=C[C@H]2CO[C@@H]1O2 [Compound 109]	740	< 0.1	> 1000	< 0.1	550 (≈ 1500 µM)	31					
C1=C[C@H]2CO[C@H](O2)[C@H]1OCc1ccccc1 [Compound 48]	> 1000	41	430 (≈ 1970 µM)	34	120 (≈ 550 µM)	35					
O=C(CCCCCCCCCCCCCCCO)O[C@H]1C=C[C@H]2CO[C@@H]1O2 [Compound 49, 1,6-anhydro-3,4-dideoxy-2-O-(16-hydroxy)hexadecanoyl-β-D-threo-hex-3-enopyranose]	32	< 0.1	41 (≈ 107 µM)	< 0.1	11 (≈ 28.8 µM)	0.43					
Cc1ccccc1C(=O)O[C@H]1C=C[C@H]2CO[C@@H]1O2 [Compound 50]	180	< 0.001	380 (≈ 1540 µM)	< 0.001	52 (≈ 211 µM)	< 0.001					
CC(=O)O[C@H]1C=C[C@H]2CO[C@@H]1O2 [Compound 9]		320	> 1000	790		720					
O=C(O[C@H]1C=C[C@H]2CO[C@@H]1O2)c1cccnc1 [Compound 15]	480	320	310 (≈ 1330 µM)	220	130 (≈ 557 µM)	78					
O=C(/C=C/c1ccccc1)O[C@H]1C=C[C@H]2CO[C@@H]1O2 [Compound 18]		< 0.001	370 (≈ 1430 µM)	< 0.001		0.68					
CC(=O)O[C@@]1(C)C=C[C@H]2CO[C@@H]1O2 [Compound 32, 2-O-acetyl-1,6-anhydro-3,4-dideoxy-2-C-methyl-β-D-threo-hex-3-enopyranose]	540	2.8	540 (≈ 2930 µM)	400	320 (≈ 1740 µM)	350					
COC(=O)O[C@H]1C=C[C@H]2CO[C@@H]1O2 [Compound 21, 1,6-anhydro-3,4-dideoxy-2-O-methoxycarbonyl-β-D-threo-hex-3-enopyranose]		17	> 1000	500		130					
O=C(CCCCCBr)O[C@H]1C=C[C@H]2CO[C@@H]1O2 [Compound 13]	190	0.32	330 (≈ 1080 µM)	< 0.001	33 (≈ 108 µM)	< 0.001					
CCCCCCCC/C=C\CCCCCCCC(=O)O[C@H]1C=C[C@H]2CO[C@@H]1O2 [Compound 8]		310	> 1000	810		340					
CCCCCCCCCCCCCCCC(=O)O[C@@]1(C)C=C[C@H]2CO[C@@H]1O2 [Compound 33]		460	> 1000	340		5.6					
Nc1ccccc1C(=O)O[C@H]1C=C[C@H]2CO[C@@H]1O2 [Compound 19]							32	160 (≈ 647 µM)	24	0.39 (≈ 1.58 µM)	76
CO[C@H]1C=C[C@H]2CO[C@@H]1O2 [Compound 41, 1,6-anhydro-3,4-dideoxy-2-O-methyl-β-D-threo-hex-3-enopyranose]		0.95	> 1000	670		> 1000					
